# Measured values reported in article PMC11902257, “Antiprotozoal Aminosteroids from Pachysandra terminalis” (Molecules, 2025).
# Where “and” joins values, the source holds several entries; their conditions need not be identical. Equal entries are not always repeated. Where two headings read alike, the source gives them in different places.
# Legend:
# Assay type in all cases: cell-based
# [1] = cytotoxicity against L-6 rat skeletal myoblasts, resazurin
# Description: Cytotoxicity against L-6 rat skeletal myoblasts: The L6 rat skeletal myoblast cell line used for cytotoxicity tests was obtained from the American Type Culture Collection (ATCC, Manassas, VA, USA) as ATCC-CRL-1458 [50]. The cells were cultivated in RPMI 1640 medium supplemented with 1% L-glutamine (200mM) and 10% fetal bovine serum. Cultures were maintained at 37 °C in an atmosphere of 5% CO2. Assays were performed in 96-well plates, each well containing RPMI 1640 medium supplemented with 1% L-glutamine (200 mM), 10% fetal bovine serum, and 2 × 10^3 L-6 cells/well. Plates were incubated at 37 °C under a 5% CO2 atmosphere for 24 h. Compounds were dissolved in DMSO (10 mg/mL). After 24 h, serial drug dilutions of eleven 3-fold dilution steps covering a range from 100 to 0.002 μg/mL were prepared, and the plates were incubated at 37 °C under 5% CO2 for 70 h. After 70 h incubation, 10 μL of resazurin solution (12.5 mg resazurin in 100 mL 1xPBS) was added per well, and plates were incubated for an additional 2 h. After that, the plates were read with a Spectramax Gemini EM microplate fluorometer (Molecular Devices, San Jose, CA, USA) using an excitation wavelength of 536 nm and an emission wavelength of 588 nm. Data were treated according to [44] (see below). Podophyllotoxin served as a positive control.
# (§1) Bioassay data and statistical methods: In all cases, the readout data were plotted in Microsoft Excel. Half-maximal inhibitory concentrations (IC50 values) were calculated from the sigmoidal dose-response curves by linear regression. Two independent replicates of the assay were performed in all cases, and the results were expressed as arithmetic mean ± deviation from the mean.
# [2] = test system: Plasmodium falciparum (Pf) NF54 strain; experiment: in vitro antiplasmodial assay, 3H-hypoxanthine incorporation, erythrocytic stages; conditions: for IC50: Plasmodium falciparum, read-out: IC50 Pf (converted); for SI (Pf): Selectivity index IC50(Cytotox)/IC50(Pf), pure compounds
# Description: Plasmodium falciparum (Pf): Tests were performed against erythrocytic stages of the drug-sensitive NF54 strain. The NF54 strain was obtained from F. Hoffmann-La Roche Limited (Basel, Switzerland). The strain NF54 was originally derived from a patient living near Schiphol Airport, Amsterdam, who had never left the Netherlands. The assay was performed using a 3H-hypoxanthine incorporation assay. Serial compound dilutions were prepared with the medium as indicated above and then added in 96-well plates to parasite cultures incubated in the medium previously described, consisting of RPMI 1640 supplemented with 0.5% ALBUMAX® II, 25 mM Hepes, 25 mM NaHCO3 (pH 7.3), 0.36 mM hypoxanthine, and 100 μg/mL neomycin. The plates were incubated in a humidified atmosphere at 37 °C, 4% CO2, 3% O2, and 93% N2. After 48 h, 0.25 μCi of 3H-hypoxanthine was added to each well. Incubation was continued under identical conditions for a further 24 h. The plates were then harvested using a Betaplate™ cell harvester (Wallac, Zurich, Switzerland). The red blood cells were transferred onto a glass fiber filter and washed with distilled H2O. After drying, filters were inserted into a plastic foil with 10 mL of scintillation fluid and counted with a Betaplate™ liquid scintillation counter (Wallac, Zurich, Switzerland). Data were treated according to [44] (see below). The positive control was chloroquine.
# as §1
# [3] = test system: Trypanosoma brucei rhodesiense (Tbr) STIB900 strain; experiment: in vitro antitrypanosomal assay, bloodstream forms, resazurin; conditions: for SI(Tbr): Selectivity index IC50(Cytotox)/IC50(Tbr); for IC50: Trypanosoma brucei, read-out: IC50 Tbr (converted)
# Description: Trypanosoma brucei rhodesiense (Tbr): The STIB900 strain is a derivative of the STIB704 strain isolated from a patient in Ifakara, Tanzania, in 1982 [43]. The bloodstream forms were cultivated as axenic culture in HMI-9 medium, supplemented with 15% heat-inactivated horse serum. Cultures were maintained at 37 °C in an atmosphere of 5% CO2. Test compounds were dissolved in DMSO (10 mg/mL), and serial drug dilutions of eleven 3-fold dilution steps covering a range from 100 to 0.002 μg/mL were prepared in a 96-well plate. Bloodstream-form of T. b rhodesiense strain STIB900 (2 × 10^3/well) was added into the wells. After 68 h incubation, 10 μL of resazurin solution (12.5 mg resazurin in 100 mL 1xPBS) was added per well, and plates were incubated for an additional 4 h. Subsequently, the plates were read with a Spectramax Gemini EM microplate fluorometer (Molecular Devices, San Jose, CA, USA) using an excitation wavelength of 536 nm and an emission wavelength of 588 nm. Data were treated according to [44] (see below). Melarsoprol was used as a positive control.
# as §1
# [4] = NF54, pure compounds, tested as mono- or bis-trifluoroacetates where marked
# [5] = NF54, values in brackets, calculated with the molecular masses of the corresponding salts
# [6] = pure compounds, tested as mono- or bis-trifluoroacetates where marked
# [7] = values in brackets, calculated with the molecular masses of the corresponding salts
compound,measurement,setting,value
"C[C@@H]([C@H]1CC[C@H]2[C@@H]3CC=C4C[C@@H](N(C)C)CC[C@]4(C)[C@H]3CC[C@]12C)N(C)C [Compound 13, Sarcodinine]",IC50 at 70 h,[1],11 µg/mL and 18 µM
same,IC50,[2]; [4],4.6 ± 0.7 µg/mL
same,IC50,[2]; [5],7.7 µM
same,SI (Pf),[2],2
same,SI(Tbr),[3]; pure compounds,4
same,IC50,[3]; [6],2.6 ± 0.4 µg/mL
same,IC50,[3]; [7],4.3 µM
"CN[C@@H]1CC[C@]2(C)[C@H]3CC[C@]4(C)[C@@H]([C@H](C)N(C)C)CC[C@H]4[C@@H]3CC[C@@]2(O)[C@@H]1OC(=O)c1ccccc1 [Compound 17, 5α-Hydroxy-3α,4α-diapachysanaximine A]",IC50 at 70 h,[1],12 µg/mL and 16 µM
same,IC50,[2]; [4],1.6 ± 0.4 µg/mL
same,IC50,[2]; [5],2.3 µM
same,SI (Pf),[2],7
same,SI(Tbr),[3]; pure compounds,3
same,IC50,[3]; [6],3 ± 2 µg/mL
same,IC50,[3]; [7],5 µM
CC1=CC(=O)CC(C)(C)C1CCC(C)N(C)C (stereo not shown) [Compound 1],IC50 at 70 h,[1],47 µg/mL and 198 µM
same,IC50,[2]; [4],0.93 ± 0.07 µg/mL
same,IC50,[2]; [5],3.91 µM
same,SI (Pf),[2],51
same,SI(Tbr),[3]; pure compounds,8
same,IC50,[3]; [6],6.2 ± 0.9 µg/mL
same,IC50,[3]; [7],26.2 µM
"CC(=O)N(C)[C@@H](C)[C@H]1CC[C@H]2[C@@H]3CC[C@H]4C[C@@H](N(C)C)CC[C@]4(C)[C@H]3CC[C@]12C [Compound 14, Epipachysamine A]",IC50 at 70 h,[1],12 µg/mL and 23 µM
same,IC50,[2]; [4],18 ± 1 µg/mL
same,IC50,[2]; [5],36 µM
same,SI (Pf),[2],0.6
same,SI(Tbr),[3]; pure compounds,5
same,IC50,[3]; [6],2.14 ± 0.05 µg/mL
same,IC50,[3]; [7],4.14 µM
